Experimental data published in US6015900A, “N-aminoalkylfluorenecarboxamides” (Neurogen Corporation, priority 1998, dated 2000).
Counter-ions that a name gives are not always drawn. Like-named read-outs stand apart in the source and are kept apart here.

Tests used:
[1] = target: D2 receptors (Chlorocebus aethiops, UniProt P52702); assay: biochemical; assay type: binding, African Green monkey
Protocol: (§1) Pellets of COS cells containing recombinantly produced D2 or D3 receptors from African Green monkey were used for the assays. The sample is homogenized in 100 volumes (w/vol) of 0.05 M Tris HCl buffer at 4° C. and pH 7.4. The sample is then centrifuged at 30,000×g and resuspended and rehomogenized. The sample is then centrifuged as described and the final tissue sample is frozen until use. The tissue is resuspended 1:20 (wt/vol) in 0.05 M Tris HCl buffer containing 100 mM NaCl.
(§2) Incubations are carried out at 48° C. and contain 0.4 ml of tissue sample, 0.5 nM ^3 H-YM 09151-2 and the compound of interest in a total incubation of 1.0 ml. Nonspecific binding is defined as that binding found in the presence of 1 mM spiperone; without further additions, nonspecific binding is less than 20% of total binding.

[2] = target: D3 receptors (Chlorocebus aethiops, UniProt P52703); assay: biochemical; assay type: binding, African Green monkey
D3 receptors, sequence (P52703 whole entry): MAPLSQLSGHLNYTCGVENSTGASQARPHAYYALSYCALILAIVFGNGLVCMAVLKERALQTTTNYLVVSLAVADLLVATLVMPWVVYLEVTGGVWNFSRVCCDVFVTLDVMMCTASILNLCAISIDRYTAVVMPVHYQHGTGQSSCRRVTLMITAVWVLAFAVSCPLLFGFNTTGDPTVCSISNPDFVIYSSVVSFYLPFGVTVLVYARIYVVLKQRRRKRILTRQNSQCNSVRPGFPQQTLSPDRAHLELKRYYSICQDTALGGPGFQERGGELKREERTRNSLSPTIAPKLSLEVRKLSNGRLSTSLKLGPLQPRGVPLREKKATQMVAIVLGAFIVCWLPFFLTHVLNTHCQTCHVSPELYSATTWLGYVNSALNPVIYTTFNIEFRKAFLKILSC
Protocol: as §1, §2

[3] = COS cells containing recombinant D2 receptors, 0.5 nM ^3 H-YM 09151-2, nonspecific binding with 1 mM spiperone, read-out: D2 Ki
[4] = COS cells containing recombinant D3 receptors, 0.5 nM ^3 H-YM 09151-2, nonspecific binding with 1 mM spiperone, read-out: D3 Ki

D2 receptors, sequence (P52702 whole entry): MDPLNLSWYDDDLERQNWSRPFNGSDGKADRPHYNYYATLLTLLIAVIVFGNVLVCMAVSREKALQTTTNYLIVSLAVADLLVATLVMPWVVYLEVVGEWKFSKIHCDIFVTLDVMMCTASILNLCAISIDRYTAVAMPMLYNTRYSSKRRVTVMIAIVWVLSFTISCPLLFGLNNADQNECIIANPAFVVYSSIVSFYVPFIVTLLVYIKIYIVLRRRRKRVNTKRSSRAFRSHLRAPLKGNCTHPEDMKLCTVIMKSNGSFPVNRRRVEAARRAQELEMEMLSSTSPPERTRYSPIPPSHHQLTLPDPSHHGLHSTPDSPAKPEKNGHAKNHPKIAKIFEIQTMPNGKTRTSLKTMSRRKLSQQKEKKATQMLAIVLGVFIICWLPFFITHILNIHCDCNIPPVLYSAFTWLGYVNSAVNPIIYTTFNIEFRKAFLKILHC

| Ki [1, 3] [nM] | Ki [2, 4] [nM] | SMILES | Ki [1] [nM] | Ki [2] [nM] |
| --- | --- | --- | --- | --- |
|  |  | O=C(NCCCCN1CCN(c2cccc(Cl)c2Cl)CC1)c1ccc2c(c1)Cc1ccccc1-2 [Compound 1, N-{4-[4-(2,3-dichlorophenyl)-1-piperazinyl]butyl}-9H-fluorene-2-carboxamidehydrochloride] | 729 | 3 |
| 150 | 1 | O=C(NCCCCN1CCN(c2cccc3ccccc23)CC1)c1ccc2c(c1)Cc1ccccc1-2 [Compound 2, N-{4-[4-(1-Naphthyl)-1-piperazinyl]butyl}-9H-fluorene-2-carboxamide hydrochloride] |  |  |
| 97 | 0.7 | O=C(NCCCCN1CCN(c2ccccc2Cl)CC1)c1ccc2c(c1)C(=O)c1ccccc1-2 [Compound 3, N-{4-[4-(2-Chlorophenyl)-1-piperazinyl]butyl}-9-oxo-fluorene-2-arboxamide hydrochloride] |  |  |
